From ChEMBL document CHEMBL1150976, “The selectivity of protein kinase inhibitors: a further update” (Biochem J, 2007) come the findings set out here.

For experiment [1], the target named is Myosin light chain kinase, smooth muscle (Homo sapiens, UniProt Q15746). The experiment in a line: Percentage SmMLCK activity remaining in the presence of 0.01uM inhibitor.
Experiment [2] addresses T1, Mitogen-activated protein kinase 12 (Homo sapiens) (UniProt P53778).
T1 sequence (whole entry): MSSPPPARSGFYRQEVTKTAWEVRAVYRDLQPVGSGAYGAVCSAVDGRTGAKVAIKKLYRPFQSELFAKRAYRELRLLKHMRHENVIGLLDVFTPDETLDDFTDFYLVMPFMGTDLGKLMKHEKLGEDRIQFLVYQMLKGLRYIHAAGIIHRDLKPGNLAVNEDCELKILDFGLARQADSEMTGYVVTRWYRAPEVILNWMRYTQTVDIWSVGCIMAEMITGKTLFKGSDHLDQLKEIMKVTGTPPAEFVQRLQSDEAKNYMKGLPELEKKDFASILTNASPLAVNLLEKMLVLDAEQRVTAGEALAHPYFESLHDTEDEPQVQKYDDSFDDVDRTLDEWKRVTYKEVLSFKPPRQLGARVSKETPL
The experiment in a line: Percentage p38-gamma activity remaining in the presence of 25uM inhibitor.

For experiment [3], the target named is MAP kinase-interacting serine/threonine-protein kinase 1 (Homo sapiens) (UniProt Q9BUB5). Nature of the experiment: Percentage MNK1 activity remaining in the presence of 25uM inhibitor.
The target in experiment [4] is Calcium/calmodulin-dependent protein kinase type 1 (Homo sapiens) (UniProt Q14012). The experiment in a line: Percentage CaMK1 activity remaining in the presence of 25uM inhibitor.
The target of experiment [5] is Proto-oncogene tyrosine-protein kinase LCK (Mus musculus) (UniProt P06240). Nature of the experiment: Percentage Lck activity remaining in the presence of 25uM inhibitor.
Experiment [6] deals with Homeodomain-interacting protein kinase 2 (Homo sapiens) (UniProt Q9H2X6). Nature of the experiment: Percentage HIPK2 activity remaining in the presence of 25uM inhibitor.
For experiment [7], the target named is Calcium/calmodulin-dependent protein kinase kinase 1 (Homo sapiens) (UniProt Q8N5S9). Nature of the experiment: Percentage CaMKKalpha activity remaining in the presence of 25uM inhibitor.
Experiment [8] deals with MAP kinase-interacting serine/threonine-protein kinase 2 (Homo sapiens) (UniProt Q9HBH9). Nature of the experiment: Percentage MNK2 activity remaining in the presence of 25uM inhibitor.
The target in experiment [9] is Serine/threonine-protein kinase PAK 4 (Homo sapiens, UniProt O96013). The experiment in a line: Percentage PAK4 activity remaining in the presence of 25uM inhibitor.
Experiment [10] addresses cAMP-dependent protein kinase catalytic subunit alpha (Homo sapiens, UniProt P17612). The experiment in a line: Percentage PKA activity remaining in the presence of […]uM inhibitor. The following applies: at 25 µM.
For experiment [11], the target named is Ribosomal protein S6 kinase alpha-1 (Homo sapiens) (UniProt Q15418). Nature of the experiment: Percentage RSK1 activity remaining in the presence of 25uM inhibitor.
The target of experiment [12] is Serine/threonine-protein kinase Nek7 (Homo sapiens) (UniProt Q8TDX7). Nature of the experiment: Percentage NEK7 activity remaining in the presence of 25uM inhibitor.
Experiment [13] concerns the target MAP kinase-activated protein kinase 2 (Homo sapiens) (UniProt P49137). The experiment in a line: Percentage MAPKAPK2 activity remaining in the presence of […]uM inhibitor. The conditions noted are these: at 25 µM.
For experiment [14], the target named is T2, MAP kinase-activated protein kinase 5 (Homo sapiens) (UniProt Q8IW41).
T2 sequence (whole entry): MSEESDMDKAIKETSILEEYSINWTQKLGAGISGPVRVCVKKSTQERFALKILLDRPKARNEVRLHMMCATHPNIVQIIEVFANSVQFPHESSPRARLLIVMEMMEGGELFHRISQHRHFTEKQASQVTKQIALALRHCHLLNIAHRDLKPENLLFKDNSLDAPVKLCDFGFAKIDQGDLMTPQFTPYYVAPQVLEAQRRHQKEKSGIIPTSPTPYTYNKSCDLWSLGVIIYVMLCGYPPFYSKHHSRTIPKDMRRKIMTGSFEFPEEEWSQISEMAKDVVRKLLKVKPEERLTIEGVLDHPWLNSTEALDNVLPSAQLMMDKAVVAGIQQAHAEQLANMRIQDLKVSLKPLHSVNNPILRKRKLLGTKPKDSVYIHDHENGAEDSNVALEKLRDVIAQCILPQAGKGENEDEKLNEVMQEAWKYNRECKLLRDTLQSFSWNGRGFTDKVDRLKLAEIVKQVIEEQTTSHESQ
Nature of the experiment: Percentage PRAK activity remaining in the presence of 25uM inhibitor.

Experiment [15] concerns the target MAP/microtubule affinity-regulating kinase 3 (Homo sapiens) (UniProt P27448). Nature of the experiment: Percentage MARK3 activity remaining in the presence of 25uM inhibitor.
The target in experiment [16] is T3, Eukaryotic elongation factor 2 kinase (Homo sapiens) (UniProt O00418).
T3 sequence (whole entry): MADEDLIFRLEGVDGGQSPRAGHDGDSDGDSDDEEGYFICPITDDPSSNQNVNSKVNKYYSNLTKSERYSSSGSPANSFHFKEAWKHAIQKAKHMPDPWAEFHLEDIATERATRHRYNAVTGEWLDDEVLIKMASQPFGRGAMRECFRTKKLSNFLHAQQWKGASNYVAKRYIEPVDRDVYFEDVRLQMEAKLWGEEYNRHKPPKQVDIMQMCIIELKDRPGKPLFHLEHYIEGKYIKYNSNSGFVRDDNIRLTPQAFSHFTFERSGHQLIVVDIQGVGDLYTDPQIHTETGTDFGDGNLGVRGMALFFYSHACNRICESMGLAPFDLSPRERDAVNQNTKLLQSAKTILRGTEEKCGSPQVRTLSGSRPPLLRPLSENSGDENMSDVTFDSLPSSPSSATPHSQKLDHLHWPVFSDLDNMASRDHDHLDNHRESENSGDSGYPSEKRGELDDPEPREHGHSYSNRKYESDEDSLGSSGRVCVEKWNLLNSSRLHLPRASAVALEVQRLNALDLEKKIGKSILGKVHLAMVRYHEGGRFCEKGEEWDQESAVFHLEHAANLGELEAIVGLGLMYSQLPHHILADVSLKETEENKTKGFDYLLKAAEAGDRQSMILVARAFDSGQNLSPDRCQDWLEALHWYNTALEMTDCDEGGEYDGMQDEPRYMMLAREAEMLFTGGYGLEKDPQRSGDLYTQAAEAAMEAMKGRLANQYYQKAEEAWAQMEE
Nature of the experiment: Percentage EF2K activity remaining in the presence of 25uM inhibitor.

A further experiment is filed under the species Homo sapiens. Nature of the experiment: Percentage PHK activity remaining in the presence of 25uM inhibitor.

Sequence of MAP kinase-interacting serine/threonine-protein kinase 1 (Homo sapiens) (Q9BUB5 whole entry, looked up): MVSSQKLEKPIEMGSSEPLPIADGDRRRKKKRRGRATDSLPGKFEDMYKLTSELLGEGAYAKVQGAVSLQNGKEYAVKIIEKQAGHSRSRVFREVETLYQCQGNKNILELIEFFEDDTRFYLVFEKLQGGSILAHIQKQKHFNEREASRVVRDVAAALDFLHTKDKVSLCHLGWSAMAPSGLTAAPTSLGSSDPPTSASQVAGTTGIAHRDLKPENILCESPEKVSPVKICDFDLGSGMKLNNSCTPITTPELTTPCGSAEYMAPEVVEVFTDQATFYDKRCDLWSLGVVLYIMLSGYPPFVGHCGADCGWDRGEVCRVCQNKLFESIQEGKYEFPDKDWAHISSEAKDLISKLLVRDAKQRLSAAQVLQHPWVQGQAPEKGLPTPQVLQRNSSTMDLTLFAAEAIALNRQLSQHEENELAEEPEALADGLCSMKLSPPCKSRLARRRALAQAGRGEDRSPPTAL
Sequence of MAP/microtubule affinity-regulating kinase 3 (Homo sapiens) (P27448 whole entry, looked up): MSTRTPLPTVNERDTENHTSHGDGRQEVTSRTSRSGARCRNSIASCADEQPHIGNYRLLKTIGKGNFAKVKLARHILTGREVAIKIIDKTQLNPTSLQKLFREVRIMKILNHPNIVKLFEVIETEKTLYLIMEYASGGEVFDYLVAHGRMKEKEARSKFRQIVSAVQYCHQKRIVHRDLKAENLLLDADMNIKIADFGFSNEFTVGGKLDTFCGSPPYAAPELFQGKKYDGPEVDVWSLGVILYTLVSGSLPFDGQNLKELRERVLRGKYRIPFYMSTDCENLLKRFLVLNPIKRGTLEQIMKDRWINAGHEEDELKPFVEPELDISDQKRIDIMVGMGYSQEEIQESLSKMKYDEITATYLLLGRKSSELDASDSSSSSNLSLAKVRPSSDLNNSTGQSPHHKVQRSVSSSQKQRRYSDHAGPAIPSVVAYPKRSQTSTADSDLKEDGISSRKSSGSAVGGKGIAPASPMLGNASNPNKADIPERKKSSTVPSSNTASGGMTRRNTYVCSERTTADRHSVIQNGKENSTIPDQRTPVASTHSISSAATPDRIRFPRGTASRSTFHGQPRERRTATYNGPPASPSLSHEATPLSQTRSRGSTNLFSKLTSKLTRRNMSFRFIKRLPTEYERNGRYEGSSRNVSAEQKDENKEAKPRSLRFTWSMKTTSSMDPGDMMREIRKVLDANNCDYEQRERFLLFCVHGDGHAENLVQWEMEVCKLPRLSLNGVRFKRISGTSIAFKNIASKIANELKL
Sequence of Homeodomain-interacting protein kinase 2 (Homo sapiens) (Q9H2X6 whole entry, looked up): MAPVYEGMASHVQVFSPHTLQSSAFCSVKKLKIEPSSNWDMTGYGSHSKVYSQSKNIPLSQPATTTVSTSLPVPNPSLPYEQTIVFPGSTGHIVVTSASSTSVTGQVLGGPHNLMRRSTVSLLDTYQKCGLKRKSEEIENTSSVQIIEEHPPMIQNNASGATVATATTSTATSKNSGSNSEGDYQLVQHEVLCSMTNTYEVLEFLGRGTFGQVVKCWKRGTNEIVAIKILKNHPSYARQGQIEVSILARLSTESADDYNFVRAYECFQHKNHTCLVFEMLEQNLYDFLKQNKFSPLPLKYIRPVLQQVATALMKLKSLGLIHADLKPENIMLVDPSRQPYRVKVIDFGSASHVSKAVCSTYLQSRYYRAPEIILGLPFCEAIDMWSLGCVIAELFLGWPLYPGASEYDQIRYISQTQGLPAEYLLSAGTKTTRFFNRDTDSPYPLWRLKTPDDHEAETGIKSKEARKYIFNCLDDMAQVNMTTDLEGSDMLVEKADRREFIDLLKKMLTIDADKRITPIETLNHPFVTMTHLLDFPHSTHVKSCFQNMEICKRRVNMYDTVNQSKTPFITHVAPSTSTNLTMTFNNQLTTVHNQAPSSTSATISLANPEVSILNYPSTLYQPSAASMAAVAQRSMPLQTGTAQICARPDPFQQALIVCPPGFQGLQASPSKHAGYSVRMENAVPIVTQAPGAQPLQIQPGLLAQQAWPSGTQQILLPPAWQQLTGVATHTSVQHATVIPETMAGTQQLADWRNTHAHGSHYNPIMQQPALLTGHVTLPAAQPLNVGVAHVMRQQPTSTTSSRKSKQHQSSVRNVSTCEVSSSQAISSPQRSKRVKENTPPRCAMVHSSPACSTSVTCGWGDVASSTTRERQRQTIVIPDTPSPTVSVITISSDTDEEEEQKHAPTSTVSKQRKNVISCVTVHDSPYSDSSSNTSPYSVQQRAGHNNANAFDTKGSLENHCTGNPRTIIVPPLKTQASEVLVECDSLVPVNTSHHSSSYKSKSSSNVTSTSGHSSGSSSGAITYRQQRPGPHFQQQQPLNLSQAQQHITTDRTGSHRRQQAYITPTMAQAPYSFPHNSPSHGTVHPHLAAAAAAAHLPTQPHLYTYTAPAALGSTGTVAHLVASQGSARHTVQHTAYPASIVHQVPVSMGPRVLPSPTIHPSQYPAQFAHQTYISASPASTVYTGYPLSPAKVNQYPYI
Sequence of Ribosomal protein S6 kinase alpha-1 (Homo sapiens) (Q15418 whole entry): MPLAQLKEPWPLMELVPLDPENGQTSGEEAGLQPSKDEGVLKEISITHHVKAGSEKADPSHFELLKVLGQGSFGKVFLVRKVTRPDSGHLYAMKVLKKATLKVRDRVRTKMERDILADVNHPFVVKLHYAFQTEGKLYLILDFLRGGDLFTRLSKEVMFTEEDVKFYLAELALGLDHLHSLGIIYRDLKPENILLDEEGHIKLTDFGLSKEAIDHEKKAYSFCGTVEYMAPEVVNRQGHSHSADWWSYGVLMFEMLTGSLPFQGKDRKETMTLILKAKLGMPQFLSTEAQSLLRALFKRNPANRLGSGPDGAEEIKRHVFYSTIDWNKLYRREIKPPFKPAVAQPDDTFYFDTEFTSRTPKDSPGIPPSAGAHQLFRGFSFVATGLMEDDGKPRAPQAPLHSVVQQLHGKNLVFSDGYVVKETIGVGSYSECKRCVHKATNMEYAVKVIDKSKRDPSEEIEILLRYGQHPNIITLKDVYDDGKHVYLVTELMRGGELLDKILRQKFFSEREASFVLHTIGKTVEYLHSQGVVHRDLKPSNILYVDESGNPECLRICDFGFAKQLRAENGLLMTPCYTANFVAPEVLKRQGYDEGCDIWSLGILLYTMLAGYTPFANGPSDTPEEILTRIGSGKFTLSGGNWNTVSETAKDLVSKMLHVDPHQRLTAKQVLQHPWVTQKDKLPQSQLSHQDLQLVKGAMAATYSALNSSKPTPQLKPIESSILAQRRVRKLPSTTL
Sequence of MAP kinase-activated protein kinase 2 (Homo sapiens) (P49137 whole entry, looked up): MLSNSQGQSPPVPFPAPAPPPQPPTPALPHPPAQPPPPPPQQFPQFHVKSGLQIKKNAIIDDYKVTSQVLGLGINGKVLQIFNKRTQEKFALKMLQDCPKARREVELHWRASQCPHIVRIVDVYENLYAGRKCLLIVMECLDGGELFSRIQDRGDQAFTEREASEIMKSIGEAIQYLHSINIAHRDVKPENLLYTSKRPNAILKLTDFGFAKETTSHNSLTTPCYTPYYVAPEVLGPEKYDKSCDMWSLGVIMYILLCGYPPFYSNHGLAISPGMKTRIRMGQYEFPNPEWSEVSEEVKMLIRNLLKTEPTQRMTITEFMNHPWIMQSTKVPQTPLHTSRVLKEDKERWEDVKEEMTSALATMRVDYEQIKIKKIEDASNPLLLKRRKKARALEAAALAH
Sequence of Calcium/calmodulin-dependent protein kinase type 1 (Homo sapiens) (Q14012 whole entry, looked up): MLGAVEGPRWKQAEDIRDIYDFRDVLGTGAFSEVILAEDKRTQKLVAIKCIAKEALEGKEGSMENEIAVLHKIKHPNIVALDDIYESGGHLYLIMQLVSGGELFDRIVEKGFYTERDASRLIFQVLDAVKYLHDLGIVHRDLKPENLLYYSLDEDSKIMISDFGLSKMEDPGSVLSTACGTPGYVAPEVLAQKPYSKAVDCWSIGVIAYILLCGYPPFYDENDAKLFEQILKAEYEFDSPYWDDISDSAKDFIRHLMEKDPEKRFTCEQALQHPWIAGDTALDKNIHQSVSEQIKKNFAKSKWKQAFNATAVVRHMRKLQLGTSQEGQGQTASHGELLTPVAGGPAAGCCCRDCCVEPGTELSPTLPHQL
Sequence of MAP kinase-interacting serine/threonine-protein kinase 2 (Homo sapiens) (Q9HBH9 whole entry, looked up): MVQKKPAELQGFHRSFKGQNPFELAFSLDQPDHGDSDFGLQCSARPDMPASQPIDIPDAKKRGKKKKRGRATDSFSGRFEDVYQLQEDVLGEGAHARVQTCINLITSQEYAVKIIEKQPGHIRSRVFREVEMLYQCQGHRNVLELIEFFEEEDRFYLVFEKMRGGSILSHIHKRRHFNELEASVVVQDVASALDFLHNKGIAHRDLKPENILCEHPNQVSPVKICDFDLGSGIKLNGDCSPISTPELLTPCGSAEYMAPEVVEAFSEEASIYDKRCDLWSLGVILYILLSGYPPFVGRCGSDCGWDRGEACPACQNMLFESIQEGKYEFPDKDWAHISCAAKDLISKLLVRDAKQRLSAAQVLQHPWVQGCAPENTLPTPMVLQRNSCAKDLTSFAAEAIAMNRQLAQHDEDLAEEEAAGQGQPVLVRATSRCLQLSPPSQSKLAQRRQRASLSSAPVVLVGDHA
Sequence of Proto-oncogene tyrosine-protein kinase LCK (Mus musculus) (P06240 2-509 limits assumed): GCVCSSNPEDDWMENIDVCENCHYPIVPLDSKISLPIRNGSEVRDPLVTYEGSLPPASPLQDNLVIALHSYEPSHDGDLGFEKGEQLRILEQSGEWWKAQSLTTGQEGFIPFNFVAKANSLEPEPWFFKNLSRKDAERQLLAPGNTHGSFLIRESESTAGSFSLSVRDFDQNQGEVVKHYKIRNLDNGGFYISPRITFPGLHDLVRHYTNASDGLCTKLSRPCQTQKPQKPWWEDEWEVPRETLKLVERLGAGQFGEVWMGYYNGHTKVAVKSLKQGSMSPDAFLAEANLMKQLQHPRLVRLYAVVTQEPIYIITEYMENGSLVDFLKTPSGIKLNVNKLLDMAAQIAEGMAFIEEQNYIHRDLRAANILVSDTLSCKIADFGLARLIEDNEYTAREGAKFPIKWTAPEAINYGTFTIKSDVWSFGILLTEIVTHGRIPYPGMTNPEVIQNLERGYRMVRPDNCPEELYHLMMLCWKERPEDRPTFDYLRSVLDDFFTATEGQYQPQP

On to `O=C(NCCCNc1nc(Nc2cccc(NC(=O)N3CCCC3)c2)ncc1I)c1cccs1`, for which the Activity in experiment [1] came to 110%.

Consider `COc1cc(OC)c(/C=C2/C(=O)Nc3ccccc32)c(OC)c1`, for which the Activity was 93% in [2]; 79% in experiment [3]; 55% in experiment [4]; 49% in [5] (filed as antagonist); 96% in experiment [6]; 67% in experiment [7]. Moreover, the Activity in [8] is 97%; in [9], 84%; in experiment [10] it was 82%; in experiment [11] it was 87%; in [12], 103%; in experiment [13], 88%. Besides, the Activity in [14] is 82%; in [15], 88%; in experiment [16], 100%; in the experiment listed under Homo sapiens, 86%.

In the case of `CN[C@@H]1C[C@H]2O[C@@](C)([C@@H]1OC)n1c3ccccc3c3c4c(c5c6ccccc6n2c5c31)C(=O)N[C@H]4O` (stereo in doubt), the Activity in [1] is 83%.

As for `NCCNS(=O)(=O)c1ccc(Cl)c2ccncc12`, the Activity is 102% in [2]; 26% in experiment [3] (filed as antagonist); 82% in experiment [4]; 83% in experiment [5]; 98% in experiment [6]; 86% in experiment [7]. Besides, the Activity in [8] is 76%; in experiment [9] it was 88%; in experiment [10], 65%; in experiment [11] (filed as antagonist) it was 48%; in experiment [12], 102%; in experiment [13] it was 85%. Moreover, the Activity is 81% in [14], 78% in [15], 94% in experiment [16] and 72% in the experiment filed under Homo sapiens.
